Assay results: PubChem BioAssay (NCI)
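Each compound was tested at five concentrations against cells in 96-well plates for 48 hours. At the GI50, growth is halved. TGI marks complete inhibition of growth.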

Key:
Assay in all cases: NCI anticancer screen, dose series, 48 h
NCI-H460 lung = system: NCI-H460 lung
SF-268 CNS = system: SF-268 CNS
SR leukemia = system: SR leukemia
U251 CNS = system: U251 CNS
SK-MEL-5 melanoma = system: SK-MEL-5 melanoma
COLO 205 colon = system: COLO 205 colon
MDA-MB-435 = system: MDA-MB-435
NCI-H226 lung = system: NCI-H226 lung
RXF 393 renal = system: RXF 393 renal
A549 NSCLC = system: A549 NSCLC
OVCAR-5 ovarian = system: OVCAR-5 ovarian
HCC-2998 colon = system: HCC-2998 colon
MCF7 breast = system: MCF7 breast
HOP-92 NSCLC = system: HOP-92 NSCLC
SF-295 CNS = system: SF-295 CNS
NCI-H23 lung = system: NCI-H23 lung
BT-549 breast = system: BT-549 breast
NCI/ADR-RES ovarian = system: NCI/ADR-RES ovarian
RPMI-8226 leukemia = system: RPMI-8226 leukemia
SNB-19 CNS = system: SNB-19 CNS
HT29 colon = system: HT29 colon
HCT-15 colon = system: HCT-15 colon
K-562 leukemia = system: K-562 leukemia
OVCAR-3 ovarian = system: OVCAR-3 ovarian
NCI-H522 lung = system: NCI-H522 lung
SW-620 colon = system: SW-620 colon
OVCAR-4 ovarian = system: OVCAR-4 ovarian
LOX IMVI melanoma = system: LOX IMVI melanoma
786-0 renal = system: 786-0 renal
HOP-62 NSCLC = system: HOP-62 NSCLC
HCT-116 colon = system: HCT-116 colon
IGROV1 ovarian = system: IGROV1 ovarian
MOLT-4 leukemia = system: MOLT-4 leukemia
M14 melanoma = system: M14 melanoma
EKVX NSCLC = system: EKVX NSCLC
UO-31 renal = system: UO-31 renal
HS 578T breast = system: HS 578T breast
CAKI-1 renal = system: CAKI-1 renal
MDA-MB-231 breast = system: MDA-MB-231 breast
OVCAR-8 ovarian = system: OVCAR-8 ovarian
KM12 colon = system: KM12 colon
CCRF-CEM leukemia = system: CCRF-CEM leukemia
SK-OV-3 ovarian = system: SK-OV-3 ovarian
DU-145 prostate = system: DU-145 prostate
SF-539 CNS = system: SF-539 CNS
SN12C renal = system: SN12C renal
PC-3 prostate = system: PC-3 prostate
A498 renal = system: A498 renal
ACHN renal = system: ACHN renal

Work on `COc1ccc(-c2nnc3n(C)c(=O)c4ccccc4n23)cc1N` yielded a GI50 (NCI-H460 lung) of 0.0508 µM, a TGI (NCI-H460 lung) greater than 100 µM and a GI50 (SF-268 CNS) of 7.17 µM. For the same compound, the TGI (SF-268 CNS) was greater than 100 µM, the GI50 (SR leukemia) was 0.0346 µM and the TGI (SR leukemia) was greater than 100 µM. It also gave a GI50 (U251 CNS) of 1.63 µM, a TGI (U251 CNS) greater than 100 µM and a GI50 (SK-MEL-5 melanoma) of 0.0598 µM. It also gave a TGI (SK-MEL-5 melanoma) greater than 100 µM, a GI50 (COLO 205 colon) of 0.0469 µM and a TGI (COLO 205 colon) of 4.44 µM. It also gave a GI50 (MDA-MB-435) of 0.0226 µM, a TGI (MDA-MB-435) of 0.0799 µM and a GI50 (NCI-H226 lung) greater than 100 µM. It also gave a TGI (NCI-H226 lung) greater than 100 µM, a GI50 (RXF 393 renal) of 2.59 µM and a TGI (RXF 393 renal) greater than 100 µM. It also gave a GI50 (A549 NSCLC) of 1.47 µM, a TGI (A549 NSCLC) greater than 100 µM and a GI50 (OVCAR-5 ovarian) of 9.26 µM. It also gave a TGI (OVCAR-5 ovarian) greater than 100 µM, a GI50 (HCC-2998 colon) of 5.29 µM and a TGI (HCC-2998 colon) greater than 100 µM. It also gave a GI50 (MCF7 breast) of 0.043 µM, a TGI (MCF7 breast) greater than 100 µM and a GI50 (HOP-92 NSCLC) of 10.9 µM. The TGI (HOP-92 NSCLC) was 99.5 µM, the GI50 (SF-295 CNS) was 0.0499 µM and the TGI (SF-295 CNS) was greater than 100 µM. For the same compound, the GI50 (NCI-H23 lung) was 5.28 µM, the TGI (NCI-H23 lung) was greater than 100 µM and the GI50 (BT-549 breast) was greater than 100 µM. The TGI (BT-549 breast) was greater than 100 µM, the GI50 (NCI/ADR-RES ovarian) was 0.0656 µM and the TGI (NCI/ADR-RES ovarian) was greater than 100 µM. For the same compound, the GI50 (RPMI-8226 leukemia) was 3.88 µM, the TGI (RPMI-8226 leukemia) was greater than 100 µM and the GI50 (SNB-19 CNS) was 3.65 µM. For the same compound, the TGI (SNB-19 CNS) was greater than 100 µM, the GI50 (HT29 colon) was 0.0432 µM and the TGI (HT29 colon) was greater than 100 µM. The GI50 (HCT-15 colon) was 0.0498 µM, the TGI (HCT-15 colon) was greater than 100 µM and the GI50 (K-562 leukemia) was 0.0395 µM. The TGI (K-562 leukemia) was greater than 100 µM, the GI50 (OVCAR-3 ovarian) was 0.0474 µM and the TGI (OVCAR-3 ovarian) was greater than 100 µM. It also gave a GI50 (NCI-H522 lung) of 0.0306 µM, a TGI (NCI-H522 lung) of 42.6 µM and a GI50 (SW-620 colon) of 0.0523 µM. The TGI (SW-620 colon) was greater than 100 µM, the GI50 (OVCAR-4 ovarian) was 16.3 µM and the TGI (OVCAR-4 ovarian) was greater than 100 µM. The GI50 (LOX IMVI melanoma) was 3.01 µM, the TGI (LOX IMVI melanoma) was greater than 100 µM and the GI50 (786-0 renal) was 3.72 µM. For the same compound, the TGI (786-0 renal) was greater than 100 µM, the GI50 (HOP-62 NSCLC) was 0.0482 µM and the TGI (HOP-62 NSCLC) was greater than 100 µM. For the same compound, the GI50 (HCT-116 colon) was 0.0571 µM, the TGI (HCT-116 colon) was greater than 100 µM and the GI50 (IGROV1 ovarian) was 14.7 µM. The TGI (IGROV1 ovarian) was greater than 100 µM, the GI50 (MOLT-4 leukemia) was 3.92 µM and the TGI (MOLT-4 leukemia) was greater than 100 µM. For the same compound, the GI50 (M14 melanoma) was 0.0475 µM, the TGI (M14 melanoma) was greater than 100 µM and the GI50 (EKVX NSCLC) was 5.87 µM. The TGI (EKVX NSCLC) was greater than 100 µM, the GI50 (UO-31 renal) was 4.96 µM and the TGI (UO-31 renal) was greater than 100 µM. It also gave a GI50 (HS 578T breast) of 4.43 µM, a TGI (HS 578T breast) greater than 100 µM and a GI50 (CAKI-1 renal) of 1.95 µM. It also gave a TGI (CAKI-1 renal) greater than 100 µM, a GI50 (MDA-MB-231 breast) of 3.92 µM and a TGI (MDA-MB-231 breast) greater than 100 µM. For the same compound, the GI50 (OVCAR-8 ovarian) was 4.94 µM, the TGI (OVCAR-8 ovarian) was greater than 100 µM and the GI50 (KM12 colon) was 0.0499 µM. It also gave a TGI (KM12 colon) greater than 100 µM, a GI50 (CCRF-CEM leukemia) of 2.75 µM and a TGI (CCRF-CEM leukemia) greater than 100 µM. For the same compound, the GI50 (SK-OV-3 ovarian) was 3.25 µM, the TGI (SK-OV-3 ovarian) was greater than 100 µM and the GI50 (DU-145 prostate) was 3.09 µM. For the same compound, the TGI (DU-145 prostate) was greater than 100 µM, the GI50 (SF-539 CNS) was 1.63 µM and the TGI (SF-539 CNS) was 8.82 µM. The GI50 (SN12C renal) was 6.83 µM, the TGI (SN12C renal) was greater than 100 µM and the GI50 (PC-3 prostate) was 2.65 µM. It also gave a TGI (PC-3 prostate) greater than 100 µM, a GI50 (A498 renal) of 2.84 µM and a TGI (A498 renal) of 54.5 µM. For the same compound, the GI50 (ACHN renal) was 17.3 µM and the TGI (ACHN renal) was greater than 100 µM.
